Experiments:
[1] = molecular target: T1, HiBiT-BRM fusion protein in stable HeLa cell line (Homo sapiens, UniProt P51531); experiment: HiBiT-BRM cell-based degradation assay (Nano-Glo HiBiT Lytic Detection, 24 h); parameters: DC50: scale not given here; details: HeLa HiBiT-BRM cells; for DC50: read-out: BRM HiBit Degradation IC50; for BRM HiBit Degradation Maximum (%): top dose 30 μM
T1 construct: expressed in transfected cells
Method in brief: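 Percent degradation was scaled between DMSO-treated cells and cells given 2 μM of a known BRM/BRG1 degrader. Readout was NanoBiT luminescence after lytic detection. HeLa cells stably expressing HiBiT-BRM were dosed for 24 h, 10 points, 3-fold steps from 30 μM final, in duplicate.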

[2] = molecular target: T2, HiBit-BRG1 fusion protein in stable HeLa cell line expressing HiBit-BRG1 and LgBit (Homo sapiens, UniProt P51532); experiment: HiBiT-BRG1 cell-based degradation assay (Nano-Glo HiBiT, 24 h); details: HeLa HiBit-BRG1/LgBit cells; for DC50: read-out: BRMG1 HiBit Degradation IC50; for Dmax: top dose 30 μM, read-out: BRG1 HiBit Degradation Maximum (%)
T2 construct: expressed in transfected cells
T2 sequence (P51532 whole entry, the tested form may be a part): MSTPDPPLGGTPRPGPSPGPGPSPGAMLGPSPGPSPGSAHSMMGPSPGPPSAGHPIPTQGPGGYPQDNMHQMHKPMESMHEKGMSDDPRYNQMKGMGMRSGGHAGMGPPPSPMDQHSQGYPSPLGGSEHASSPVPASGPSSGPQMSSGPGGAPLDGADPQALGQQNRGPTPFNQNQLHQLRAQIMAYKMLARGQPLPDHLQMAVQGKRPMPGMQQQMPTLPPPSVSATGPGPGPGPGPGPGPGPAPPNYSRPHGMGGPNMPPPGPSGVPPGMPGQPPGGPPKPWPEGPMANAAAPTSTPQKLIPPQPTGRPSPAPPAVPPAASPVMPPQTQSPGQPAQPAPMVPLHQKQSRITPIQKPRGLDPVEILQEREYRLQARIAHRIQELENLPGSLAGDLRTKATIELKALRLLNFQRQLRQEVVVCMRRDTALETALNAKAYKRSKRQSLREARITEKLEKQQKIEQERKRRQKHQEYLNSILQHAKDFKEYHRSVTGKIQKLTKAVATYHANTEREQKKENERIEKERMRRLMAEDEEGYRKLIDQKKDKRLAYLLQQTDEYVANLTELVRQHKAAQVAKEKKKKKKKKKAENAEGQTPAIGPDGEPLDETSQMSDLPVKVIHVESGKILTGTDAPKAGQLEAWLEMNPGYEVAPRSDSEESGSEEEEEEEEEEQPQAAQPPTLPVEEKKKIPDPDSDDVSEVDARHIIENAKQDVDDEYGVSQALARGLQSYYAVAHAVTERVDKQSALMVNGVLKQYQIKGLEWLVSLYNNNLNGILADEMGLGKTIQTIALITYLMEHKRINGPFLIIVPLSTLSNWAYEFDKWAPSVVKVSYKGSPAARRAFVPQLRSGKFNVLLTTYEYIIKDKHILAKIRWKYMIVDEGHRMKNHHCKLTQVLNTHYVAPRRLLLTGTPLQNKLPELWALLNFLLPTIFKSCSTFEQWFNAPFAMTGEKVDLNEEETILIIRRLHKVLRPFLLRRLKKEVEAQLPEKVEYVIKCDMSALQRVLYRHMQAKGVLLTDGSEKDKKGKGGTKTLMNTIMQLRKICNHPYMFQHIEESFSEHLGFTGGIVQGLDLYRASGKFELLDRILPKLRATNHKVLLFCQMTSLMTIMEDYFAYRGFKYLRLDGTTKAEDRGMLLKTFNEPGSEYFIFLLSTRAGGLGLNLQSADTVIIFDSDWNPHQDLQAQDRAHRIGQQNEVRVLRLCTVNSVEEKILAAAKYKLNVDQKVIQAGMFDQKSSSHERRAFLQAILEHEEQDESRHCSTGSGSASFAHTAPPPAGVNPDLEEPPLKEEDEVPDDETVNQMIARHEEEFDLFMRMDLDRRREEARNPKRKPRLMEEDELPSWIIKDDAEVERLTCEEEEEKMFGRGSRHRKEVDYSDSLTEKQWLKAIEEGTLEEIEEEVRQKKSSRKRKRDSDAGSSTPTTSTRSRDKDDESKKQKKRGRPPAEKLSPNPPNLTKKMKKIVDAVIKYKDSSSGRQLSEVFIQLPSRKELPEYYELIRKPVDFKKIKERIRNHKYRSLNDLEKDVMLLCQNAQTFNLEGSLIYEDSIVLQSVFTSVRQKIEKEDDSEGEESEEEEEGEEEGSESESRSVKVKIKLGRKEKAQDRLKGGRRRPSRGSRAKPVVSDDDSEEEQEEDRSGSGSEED
Method in brief: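 Degradation calculated from NanoBiT luminescence relative to DMSO-treated cells (high) and cells given 2 μM known BRM/BRG1 degrader (low). HeLa cells stably expressing HiBiT-BRG1 plus LgBiT were exposed to compound for 24 h before lytic HiBiT detection.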

T1 sequence (P51531 whole entry, the tested form may be a part): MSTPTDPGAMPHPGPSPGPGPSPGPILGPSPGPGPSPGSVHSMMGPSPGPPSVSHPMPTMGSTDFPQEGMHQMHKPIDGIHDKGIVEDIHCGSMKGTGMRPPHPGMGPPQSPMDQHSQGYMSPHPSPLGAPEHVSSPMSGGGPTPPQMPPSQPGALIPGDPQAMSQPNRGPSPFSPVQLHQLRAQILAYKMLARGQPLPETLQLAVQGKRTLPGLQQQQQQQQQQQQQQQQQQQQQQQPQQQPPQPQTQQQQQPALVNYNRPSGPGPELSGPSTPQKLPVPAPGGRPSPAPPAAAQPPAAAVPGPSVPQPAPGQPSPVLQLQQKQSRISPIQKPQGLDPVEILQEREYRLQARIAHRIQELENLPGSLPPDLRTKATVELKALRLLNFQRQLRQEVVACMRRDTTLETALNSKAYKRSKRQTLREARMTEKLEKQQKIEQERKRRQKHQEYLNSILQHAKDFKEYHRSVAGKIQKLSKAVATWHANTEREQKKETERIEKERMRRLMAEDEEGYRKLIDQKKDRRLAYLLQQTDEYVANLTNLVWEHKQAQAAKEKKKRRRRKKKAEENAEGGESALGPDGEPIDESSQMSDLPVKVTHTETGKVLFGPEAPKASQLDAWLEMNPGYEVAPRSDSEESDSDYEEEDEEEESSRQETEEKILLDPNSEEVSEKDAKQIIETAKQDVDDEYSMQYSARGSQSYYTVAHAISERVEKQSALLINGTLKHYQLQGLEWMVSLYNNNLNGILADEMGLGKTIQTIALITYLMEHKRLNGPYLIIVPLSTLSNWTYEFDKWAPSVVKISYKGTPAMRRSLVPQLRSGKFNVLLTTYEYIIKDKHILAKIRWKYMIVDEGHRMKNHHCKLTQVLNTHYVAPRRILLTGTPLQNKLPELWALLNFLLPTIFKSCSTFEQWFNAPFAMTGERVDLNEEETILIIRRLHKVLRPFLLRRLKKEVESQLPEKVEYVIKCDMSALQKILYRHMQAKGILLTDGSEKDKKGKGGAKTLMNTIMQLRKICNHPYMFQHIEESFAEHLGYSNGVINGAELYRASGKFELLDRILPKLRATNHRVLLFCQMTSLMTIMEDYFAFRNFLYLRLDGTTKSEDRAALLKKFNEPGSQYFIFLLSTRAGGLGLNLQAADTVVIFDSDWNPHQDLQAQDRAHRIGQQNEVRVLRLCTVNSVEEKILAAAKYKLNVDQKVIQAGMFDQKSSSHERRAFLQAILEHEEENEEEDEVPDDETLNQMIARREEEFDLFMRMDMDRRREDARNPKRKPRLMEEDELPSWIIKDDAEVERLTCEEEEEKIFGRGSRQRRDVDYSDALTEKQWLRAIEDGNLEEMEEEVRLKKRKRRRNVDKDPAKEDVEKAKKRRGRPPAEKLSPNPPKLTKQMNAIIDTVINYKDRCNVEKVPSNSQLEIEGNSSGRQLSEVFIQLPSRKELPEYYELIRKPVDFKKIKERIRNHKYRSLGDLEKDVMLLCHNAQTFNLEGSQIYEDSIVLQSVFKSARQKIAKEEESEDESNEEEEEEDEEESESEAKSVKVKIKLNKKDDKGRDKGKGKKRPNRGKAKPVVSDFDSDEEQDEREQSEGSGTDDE

Row | Compound | DC50 [1] | DC50 [2] | Dmax [2] | BRM HiBit Degradation Maximum (%) [1]
1 | Cc1ncsc1-c1ccc([C@H](C)NC(=O)[C@@H]2C[C@@H](O)CN2C(=O)[C@H](C(C)C)n2cc(-c3ccc4nnc(-c5ccccc5O)cc4c3)nn2)cc1 [Compound 128, (2S,4R)-4-hydroxy-1-((S)-2-(4-(3-(2-hydroxyphenyl)cinnolin-6-yl)-1H-1,2,3-triazol-1-yl)-3-methylbutanoyl)-N—((S)-1-(4-(4-methylthiazol-5-yl)phenyl)ethyl)pyrrolidine-2-carboxamide] | < 0.01 µM | < 0.01 µM | > 75% | A (“A” indicates maximum degradation ≥75%)
2 | Cc1ncsc1-c1ccc([C@H](C)NC(=O)[C@@H]2C[C@@H](O)CN2C(=O)[C@@H](c2cc(N3C[C@H]4CN(c5ccc6cc(-c7ccccc7O)nnc6c5)C[C@H]4C3)no2)C(C)C)cc1 [Compound 131, (2S,4R)-4-hydroxy-1-((R)-2-(3-((3aR,6aS)-5-(3-(2-hydroxyphenyl)cinnolin-7-yl)hexahydropyrrolo[3,4-c]pyrrol-2(1H)-yl)isoxazol-5-yl)-3-methylbutanoyl)-N-((S)-1-(4-(4-methylthiazol-5-yl)phenyl)ethyl)pyrrolidine-2-carboxamide] | < 0.01 µM |  | > 50% | A (“A” indicates maximum degradation ≥75%)
3 | CC(C)[C@@H](C(=O)N1C[C@H](O)C[C@H]1C(=O)N[C@@H](C)c1ccccc1)c1cc(-c2ccc3nnc(-c4ccccc4O)cc3c2)no1 [Compound 133, (2S,4R)-4-hydroxy-1-((R)-2-(3-(3-(2-hydroxyphenyl)cinnolin-6-yl)isoxazol-5-yl)-3-methylbutanoyl)-N-((S)-1-phenylethyl)pyrrolidine-2-carboxamide] | < 0.01 µM | > 0.01 µM | > 75% | A (“A” indicates maximum degradation ≥75%)
4 | CC(C)[C@@H](C(=O)N1C[C@H](O)C[C@H]1C(=O)N[C@@H](C)c1ccc(F)cc1)c1cc(-c2ccc3nnc(-c4ccccc4O)cc3c2)no1 [Compound 134, (2S,4R)-N-((S)-1-(4-fluorophenyl)ethyl)-4-hydroxy-1-((R)-2-(3-(3-(2-hydroxyphenyl)cinnolin-6-yl)isoxazol-5-yl)-3-methylbutanoyl)pyrrolidine-2-carboxamide] | < 0.01 µM | > 0.01 µM | > 75% | A (“A” indicates maximum degradation ≥75%)
5 | Cc1ncsc1-c1ccc([C@H](C)NC(=O)[C@@H]2C[C@@H](O)CN2C(=O)[C@@H](c2cc(N3CCN([C@@H]4CCN(Cc5ccc6nnc(-c7ccccc7O)cc6c5)CC4(F)F)CC3)no2)C(C)C)cc1 [Compound 136, (2S,4R)-1-((R)-2-(3-(4-((R)-3,3-difluoro-1-((3-(2-hydroxyphenyl)cinnolin-6-yl)methyl)piperidin-4-yl)piperazin-1-yl)isoxazol-5-yl)-3-methylbutanoyl)-4-hydroxy-N-((S)-1-(4-(4-methylthiazol-5-yl)phenyl)ethyl)pyrrolidine-2-carboxamide] | < 0.01 µM | < 0.01 µM | > 75% | A (“A” indicates maximum degradation ≥75%)
6 | Cc1ncsc1-c1ccc([C@H](C)NC(=O)[C@@H]2C[C@@H](O)CN2C(=O)[C@@H](c2cc(N3CCN([C@H]4CCN(Cc5ccc6nnc(-c7ccccc7O)cc6c5)CC4(F)F)CC3)no2)C(C)C)cc1 [Compound 137, (2S,4R)-1-((R)-2-(3-(4-((S)-3,3-difluoro-1-((3-(2-hydroxyphenyl)cinnolin-6-yl)methyl)piperidin-4-yl)piperazin-1-yl)isoxazol-5-yl)-3-methylbutanoyl)-4-hydroxy-N-((S)-1-(4-(4-methylthiazol-5-yl)phenyl)ethyl)pyrrolidine-2-carboxamide] | < 0.01 µM | < 0.01 µM | > 75% | A (“A” indicates maximum degradation ≥75%)
7 | COC[C@H]1CN(c2cc([C@H](C(=O)N3C[C@H](O)C[C@H]3C(=O)N[C@@H](C)c3ccc(-c4scnc4C)cc3)C(C)C)on2)CCN1c1ccc2cc(-c3ccccc3O)nnc2c1 [Compound 142, (2S,4R)-4-hydroxy-1-((R)-2-(3-((R)-4-(3-(2-hydroxyphenyl)cinnolin-7-yl)-3-(methoxymethyl)piperazin-1-yl)isoxazol-5-yl)-3-methylbutanoyl)-N-((S)-1-(4-(4-methylthiazol-5-yl)phenyl)ethyl)pyrrolidine-2-carboxamide] | > 0.01 µM |  | < 50% | A (“A” indicates maximum degradation ≥75%)
8 | Cc1ncsc1-c1ccc([C@H](C)NC(=O)[C@@H]2C[C@@H](O)CN2C(=O)[C@@H](c2cc(-c3ccc4nnc(-c5cccc(F)c5O)cc4c3)no2)C(C)C)cc1 [Compound 143, (2S,4R)-1-((R)-2-(3-(3-(3-fluoro-2-hydroxyphenyl)cinnolin-6-yl)isoxazol-5-yl)-3-methylbutanoyl)-4-hydroxy-N-((S)-1-(4-(4-methylthiazol-5-yl)phenyl)ethyl)pyrrolidine-2-carboxamide] | < 0.01 µM |  | < 50% | A (“A” indicates maximum degradation ≥75%)
9 | Cc1ncsc1-c1ccc([C@H](C)NC(=O)[C@@H]2C[C@@H](O)CN2C(=O)[C@@H](c2cc(N3CC4(CN(c5cc(C)c6cc(-c7ccccc7O)nnc6c5)C4)C3)no2)C(C)C)cc1 [Compound 145, (2S,4R)-4-hydroxy-1-((R)-2-(3-(6-(3-(2-hydroxyphenyl)-5-methylcinnolin-7-yl)-2,6-diazaspiro[3.3]heptan-2-yl)isoxazol-5-yl)-3-methylbutanoyl)-N-((S)-1-(4-(4-methylthiazol-5-yl)phenyl)ethyl)pyrrolidine-2-carboxamide] | < 0.01 µM |  | < 50% | A (“A” indicates maximum degradation ≥75%)

More lines, main results first:

Row | DC50 [1] | DC50 [2] | Dmax [2] | Compound | BRM HiBit Degradation Maximum (%) [1]
10 | < 0.01 µM |  | < 50% | Cc1ncsc1-c1ccc([C@H](C)NC(=O)[C@@H]2C[C@@H](O)CN2C(=O)[C@@H](c2cc(N3CC4(CN(c5ccc6nnc(-c7ccccc7O)cc6c5)CCO4)C3)no2)C(C)C)cc1 [Compound 129, (2S,4R)-4-hydroxy-1-((R)-2-(3-(8-(3-(2-hydroxyphenyl)cinnolin-6-yl)-5-oxa-2,8-diazaspiro[3.5]nonan-2-yl)isoxazol-5-yl)-3-methylbutanoyl)-N-((S)-1-(4-(4-methylthiazol-5-yl)phenyl)ethyl)pyrrolidine-2-carboxamide] | A (“A” indicates maximum degradation ≥75%)
11 | < 0.01 µM | < 0.01 µM | > 75% | Cc1ncsc1-c1ccc([C@H](C)NC(=O)[C@@H]2C[C@@H](O)CN2C(=O)[C@@H](c2cc(N3CCC4(CN(c5ccc6cc(-c7ccccc7O)nnc6c5)C4)C3)no2)C(C)C)cc1 [Compound 130, (2S,4R)-4-hydroxy-1-((R)-2-(3-(2-(3-(2-hydroxyphenyl)cinnolin-7-yl)-2,6-diazaspiro[3.4]octan-6-yl)isoxazol-5-yl)-3-methylbutanoyl)-N-((S)-1-(4-(4-methylthiazol-5-yl)phenyl)ethyl)pyrrolidine-2-carboxamide] | A (“A” indicates maximum degradation ≥75%)
12 | < 0.01 µM | < 0.01 µM | > 75% | Cc1ncsc1-c1ccc([C@H](C)NC(=O)[C@@H]2C[C@@H](O)CN2C(=O)[C@@H](c2cc(N3CC4(CCN(c5ccc6cc(-c7ccccc7O)nnc6c5)C4)C3)no2)C(C)C)cc1 [Compound 132, (2S,4R)-4-hydroxy-1-((R)-2-(3-(6-(3-(2-hydroxyphenyl)cinnolin-7-yl)-2,6-diazaspiro[3.4]octan-2-yl)isoxazol-5-yl)-3-methylbutanoyl)-N-((S)-1-(4-(4-methylthiazol-5-yl)phenyl)ethyl)pyrrolidine-2-carboxamide] | A (“A” indicates maximum degradation ≥75%)
13 | < 0.01 µM | > 0.01 µM | > 75% | COC[C@H]1CN(c2cc([C@H](C(=O)N3C[C@H](O)C[C@H]3C(=O)N[C@@H](C)c3ccc(-c4scnc4C)cc3)C(C)C)on2)CCN1c1ccc2nnc(-c3ccccc3O)cc2c1 [Compound 138, (2S,4R)-4-hydroxy-1-((R)-2-(3-((R)-4-(3-(2-hydroxyphenyl)cinnolin-6-yl)-3-(methoxymethyl)piperazin-1-yl)isoxazol-5-yl)-3-methylbutanoyl)-N-((S)-1-(4-(4-methylthiazol-5-yl)phenyl)ethyl)pyrrolidine-2-carboxamide] | A (“A” indicates maximum degradation ≥75%)
14 | < 0.01 µM | > 0.01 µM | > 75% | COC[C@@H]1CN(c2cc(C(C(=O)N3C[C@H](O)C[C@H]3C(=O)N[C@@H](C)c3ccc(-c4scnc4C)cc3)C(C)C)on2)CCN1c1ccc2nnc(-c3ccccc3O)cc2c1 (stereo partly drawn) [Compound 144, (2S,4R)-4-hydroxy-1-(2-(3-((S)-4-(3-(2-hydroxyphenyl)cinnolin-6-yl)-3-(methoxymethyl)piperazin-1-yl)isoxazol-5-yl)-3-methylbutanoyl)-N-((S)-1-(4-(4-methylthiazol-5-yl)phenyl)ethyl)pyrrolidine-2-carboxamide] | A (“A” indicates maximum degradation ≥75%)

Source: US20260193264A1, “BENZOYPARAZINE PYRAZINES AND THEIR USES” (FOGHORN THERAPEUTICS INC., priority 2022, published 2026)
